Literature values in US20220265591A1, “USE OF AN OSMOLYTE IN MANUFACTURE OF A MEDICAMENT FOR TREATMENT OF OCULAR DISORDERS” (SINGAPORE HEALTH SERVICES PTELTD, priority 2019, published 2022).

Tested on: TGFBIp derived peptides
Conditions: 0.001-0.02% (0.03-0.6 mM), close to critical micellar concentration; cited from earlier work

benzalkonium chloride
effect on amyloid fibril formation: accelerated the amyloid fibril formation
